Test results from the NIST ThermoML archive (doi:10.1016/j.fluid.2014.01.044).
Numbers after ± are expanded uncertainties.

Key:
[1] = xn = mol fraction of the nth substance listed; conditions: 100.2 kPa, Liquid, Pycnometric method
[2] = 100.2 kPa, Liquid, Pycnometric method

Compound | mass density ([1]; 298.2 K, x1 = 2.41e-07) [kg/m3] | mass density ([1]; 303.2 K, x1 = 3.11e-07) [kg/m3] | mass density ([1]; 308.2 K, x1 = 4.32e-07) [kg/m3] | mass density ([1]; 313.2 K, x1 = 5.86e-07) [kg/m3] | mass density ([1]; 318.2 K, x1 = 6.93e-07) [kg/m3] | mass density ([2]; 298.2 K) [kg/m3] | mass density ([2]; 303.2 K) [kg/m3] | mass density ([2]; 308.2 K) [kg/m3] | mass density ([2]; 313.2 K) [kg/m3] | mass density ([2]; 318.2 K) [kg/m3]
CCCCCCCCCC(=O)OCCN1CCN(CCCN2c3ccccc3Sc3ccc(C(F)(F)F)cc32)CC1 + O | 1000 ± 5 | 996 ± 6 | 993 ± 13 | 991 ± 2 | 989 ± 2 |  |  |  |  | 
O [water] |  |  |  |  |  | 1000 ± 2 | 996 ± 2 | 993 ± 2 | 991 ± 2 | 989 ± 2
